Assay results from patent US6455546B2, “Method for promoting ovulation, parturition, and lactation in mammals” (Clemson University, priority 1996, dated 2002).
“And” between values parts separate entries of the source, which are not always exact repeats. Equal entries are not always repeated. “Also recorded” adds a separate entry of the source.

Columns and labels:
[1] = test system: mares; assay: Stimulation of follicular growth and ovulation in mares out of season
[2] = test system: agalactic mares; assay: Preparation for parturition, udder development and lactation in agalactic mares; type: in vivo;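 note: treated mares were free of fescue toxicosis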
[3] = test system: quarter horse mares; assay: Daily feed intake of mares; type: in vivo
Source text: Ten quarter horse mares were housed in individual pens and fed a standard feed concentrate weighing 0.5% of each mares' initial body weight at approximately 8:00 A.M. each day during the study. In addition, hay was fed to the mare ad libitum each day. During the night, the mares were placed in a dry lot having no access to food.

[4] = test system: animals; settings: animals exposed to other D2 receptor antagonists; cited from earlier work
[5] = individual mares, domperidone .55 mg/kg orally daily in molasses, January and February
[6] = individual agalactic mares, 1.1 mg/kg per day orally, 1.1 mg/kg/day

Row | Structure (SMILES) | Mares treated that ovulated ([1]; 0.55 mg/kg orally daily, only two of nine control mares ovulated) | Date of Ovulation [1, 5] | No. of Days of Treatment Before Ovulation [1, 5] | Neurological side effects ([1]; mares, 0.55 mg/kg orally daily, during the study) | Milk production ([2]; horses, orally about 0.2 mg/kg to about 3.3 mg/kg of body weight) | Did Mare Have A Live Foal? ([2]; individual agalactic mares, 1.1 mg/kg per day orally) | Days Before (−) or After Expected Foaling that Mare Foaled [2, 6] | Mare's Udder Development After Treatment Began [2, 6] | Was Mare Lactating Normally After Foaling? [2, 6] | Adverse side effects ([2]; subcutaneous, amounts greater than 1.32 mg/kg) | Daily hay consumption after treatment began ([3]; each of the ten mares, 1.1 mg/kg orally daily) | Avg. Hay Consumption After Treatment ([3]; individual mares, 1.1 mg/kg orally daily for two weeks, hay ad libitum, 1.1 mg/kg) | Neuroleptic side effects [4]
1 | O=c1[nH]c2ccccc2n1CCCN1CCC(n2c(=O)[nH]c3cc(Cl)ccc32)CC1 [domperidone] | nine of the ten | Feb. 9; also recorded: Feb. 6; also recorded: Feb. 12; also recorded: Feb. 8; also recorded: Feb. 15; also recorded: Feb. 5; also recorded: Feb. 7; also recorded: Feb. 13; also recorded: d/n ovulate; also recorded: Feb. 10 | 18 Days (2×) and 21 Days and 17 Days and 24 Days and 14 Days and 16 Days and 22 Days and d/n ovulate and 19 Days | No neurological side effects were observed | stimulated | Yes | −1 Days and +8 Days and +15 Days and +14 Days and 0 Days and −3 Days (2×) and +3 Days and −2 Days and +12 Days | Increased Weekly; also recorded: Developed Adequately; also recorded: Very Slight; also recorded: Gradual Development; also recorded: Normal Development; also recorded: No Response; also recorded: Immediate; also recorded: Dripping Milk 5th Day | Yes (11×) and No. but drug | without any adverse side effects | increased | 13.0 lbs and 12.2 lbs and 14.1 lbs (2×) and 13.2 lbs and 14.2 lbs and 12.3 lbs and 13.5 lbs and 15.0 lbs and 12.1 lbs | 
2 | CCN1CCCC1CNC(=O)c1cc(S(N)(=O)=O)ccc1OC (centres unmarked) [sulpiride] |  |  |  |  |  |  |  |  |  |  |  |  | neuroleptic side effects have been observed
3 | CCN(CC)CCNC(=O)c1cc(Cl)c(N)cc1OC [metoclopramide] |  |  |  |  |  |  |  |  |  |  |  |  | neuroleptic side effects have been observed
